This note sets out measurements from EP0428104A2, “Treatment of multi-drug resistant tumors with pyridyloxazole-2-ones” (MERRELL DOW PHARMACEUTICALS INC., priority 1989, dated 1991).

This test deals with CHO^R cells. In words: Reversal of multidrug resistance: cell growth in vinblastine resistant tumor cell line, cell number by Coulter counter. The format is cell-based. To be noted: 72 hr. As for the experimental part: CHO^R cells were plated at a density of 1X10⁵/35mm dish and were allowed to grow overnight at 37°C in a CO₂ incubator. The medium was replaced with medium containing the compounds and vinblastine (0.2 µg/ml). The cells were allowed to grow for further 72 hr and the cell number was determined by Coulter counter after trypsinization. […]

On to `CCCc1[nH]c(=O)oc1-c1ccncc1` [4-PROPYL-5(4-PYRIDINYL)-2(3H)-OXAZOLONE, 4-propyl-5-(4-pyridinyl)-2(3H)-oxazolone], for which the “% Inhibition of Cell Growth Compound + VLB” value is, setting by setting: (compound 0.1 µg/ml plus vinblastine 0.2 µg/ml) 6%; (compound 1 µg/ml plus vinblastine 0.2 µg/ml) 22%; (compound 10 µg/ml plus vinblastine 0.2 µg/ml) 82%. Moreover, the inhibition at 0.1 µg/mL (compound 0.1 µg/ml, without VLB, read-out: % Inhibition of Cell Growth Compound Only) was determined as 0%. Also, the inhibition at 1 µg/mL (compound 1 µg/ml, without VLB, read-out: % Inhibition of Cell Growth Compound Only) was 0%. Also, for the setting “compound 10 µg/ml, without VLB, read-out: % Inhibition of Cell Growth Compound Only”, the inhibition at 10 µg/mL was found to be 55%.

For the compound `CC[C@]1(O)C[C@@H]2CN(CCc3c([nH]c4ccccc34)[C@@](C(=O)OC)(c3cc4c(cc3OC)N(C)[C@H]3[C@@](O)(C(=O)OC)[C@H](OC(C)=O)[C@]5(CC)C=CCN6CC[C@]43[C@@H]65)C2)C1` [VLB, vinblastine, reference compound], the “effect on cell growth” value (VLB alone at 0.2 µg/ml) is reported as “did not have any effect on cell growth”.

What is called inhibition is the relative decrease from the control value, in per cent.
